Measured values as given in US20240158348A1, “HERBICIDAL CYCLIC AMIDES N-SUBSTITUTED WITH A HALOALKYLSULFONYLANILIDE GROUP” (FMC Corporation, priority 2021, published 2024).

How the values were obtained:
[1] = test system: galium (catchweed bedstraw, Galium aparine); experiment: Test A postemergence, galium; assay type: in vivo; conditions: post-emergence, 240 h, 0 to 100 scale, 10 days, read-out: Plant response rating, Galium; for pest or weed control at 31 g/ha: 31 g ai/ha; for pest or weed control at 125 g/ha: 125 g ai/ha
Source text: (§1) Seeds of plant species selected from barnyardgrass (Echinochloa crus-galli), blackgrass (Alopecurus myosuroides), corn (Zea mays), foxtail, giant (giant foxtail, Setaria faberi), goosegrass (Eleusine indica), kochia (Bassia scoparia), oat, wild (wild oat, Avena fatua), pigweed, palmer (palmer amaranth, Amaranthus palmeri), pigweed, redroot (redroot pigweed, Amaranthus retroflexus), ragweed (common ragweed, Ambrosia artemisiifolia), ryegrass, Italian (Italian ryegrass, Lolium multiflorum), soybean (Glycine max), and wheat (Triticum aestivum) were planted into a blend of loam soil and sand and treated preemergence with a directed soil spray using test chemicals formulated in a non-phytotoxic solvent mixture which included a surfactant.
(§2) At the same time, plants selected from these crop and weed species and also galium (catchweed bedstraw, Galium aparine) and horseweed (Erigeron canadensis) were planted in pots containing the same blend of loam soil and sand and treated with postemergence applications of test chemicals formulated in the same manner. Plants ranged in height from 2 to 10 cm and were in the one- to two-leaf stage for the postemergence treatment. Treated plants and untreated controls were maintained in a greenhouse for 10 days, after which time all treated plants were compared to untreated controls and visually evaluated for injury. Plant response ratings, summarized in Table A, are based on a 0 to 100 scale where 0 is no effect and 100 is complete control. A dash (-) response means no test result.

[2] = test system: ragweed (common ragweed, Ambrosia artemisiifolia); experiment: Test A postemergence, ragweed; assay type: in vivo; conditions: post-emergence, 240 h, 0 to 100 scale, 10 days, read-out: Plant response rating, Ragweed; for pest or weed control at 31 g/ha: 31 g ai/ha; for pest or weed control at 125 g/ha: 125 g ai/ha
Source text: as §1, §2

[3] = test system: kochia (Bassia scoparia); experiment: Test A postemergence, kochia; assay type: in vivo; conditions: post-emergence, 240 h, 0 to 100 scale, 10 days, read-out: Plant response rating, Kochia; for pest or weed control at 31 g/ha: 31 g ai/ha; for pest or weed control at 125 g/ha: 125 g ai/ha
Source text: as §1, §2

[4] = test system: sedge, umbrella (small-flower umbrella sedge, Cyperus difformis); experiment: Test B flooded paddy test, umbrella sedge; assay type: in vivo; conditions: 250 g ai/ha, Flood, scale of 0 to 100 where 0 is no effect and 100 is complete control, visually evaluated after 10 to 14 days, read-out: Plant response rating, Sedge, Umbrella
Experimental: (§3) Plant species in the flooded paddy test selected from barnyardgrass (Echinochloa crusgalli), ducksalad (Heteranthera limosa), rice (Oryza sativa), and sedge, umbrella (small-flower umbrella sedge, Cyperus difformis) were grown to the 2-leaf stage for testing. At time of treatment, test pots were flooded to 3 cm above the soil surface, treated by application of test compounds directly to the paddy water, and then maintained at that water depth for the duration of the test. Treated plants and controls were maintained in a greenhouse for 10 to 14 days, after which time all species were compared to controls and visually evaluated. Plant response ratings, summarized in Table B, are based on a scale of 0 to 100 where 0 is no effect and 100 is complete control. A dash (-) response means no test result.

[5] = test system: foxtail, giant (giant foxtail, Setaria faberi); experiment: Test A postemergence, giant foxtail; assay type: in vivo; conditions: post-emergence, 240 h, 0 to 100 scale, 10 days, read-out: Plant response rating, Foxtail, Giant; for pest or weed control at 31 g/ha: 31 g ai/ha; for pest or weed control at 125 g/ha: 125 g ai/ha
Source text: as §1, §2

[6] = test system: barnyardgrass (Echinochloa crusgalli); experiment: Test B flooded paddy test, barnyardgrass; assay type: in vivo; conditions: Echinochloa crus-galli; 250 g ai/ha, Flood; scale of 0 to 100 where 0 is no effect and 100 is complete control; visually evaluated after 10 to 14 days; read-out: Plant response rating, Barnyardgrass
Experimental: as §3

[7] = test system: ducksalad (Heteranthera limosa); experiment: Test B flooded paddy test, ducksalad; assay type: in vivo; conditions: 250 g ai/ha, Flood, scale of 0 to 100 where 0 is no effect and 100 is complete control, visually evaluated after 10 to 14 days, read-out: Plant response rating, Ducksalad
Experimental: as §3

[8] = test system: rice (Oryza sativa); experiment: Test B flooded paddy test, rice; assay type: in vivo; conditions: 250 g ai/ha, Flood, scale of 0 to 100 where 0 is no effect and 100 is complete control, visually evaluated after 10 to 14 days, read-out: Plant response rating, Rice
Experimental: as §3

[9] = test system: oat, wild (wild oat, Avena fatua); experiment: Test A postemergence, wild oat; assay type: in vivo; conditions: 0 to 100 scale, 10 days
Source text: as §1, §2

[10] = test system: oat, wild (wild oat, Avena fatua); experiment: Test A preemergence, wild oat; assay type: in vivo; conditions: 0 to 100 scale, 10 days
Source text: as §1, §2

[11] = test system: horseweed (Erigeron canadensis); experiment: Test A postemergence, horseweed; assay type: in vivo; conditions: 0 to 100 scale, 10 days
Source text: as §1, §2

Row | Structure (SMILES) | pest or weed control at 31 g/ha [1] [%] | pest or weed control at 125 g/ha [1] [%] | melting point [°C] | pest or weed control at 31 g/ha [2] [%] | pest or weed control at 125 g/ha [2] [%] | pest or weed control at 31 g/ha [3] [%] | pest or weed control at 125 g/ha [3] [%] | pest or weed control at 250 g/ha [4] [%] | pest or weed control at 31 g/ha [5] [%] | pest or weed control at 125 g/ha [5] [%] | pest or weed control at 250 g/ha [6] [%] | pest or weed control at 250 g/ha [7] [%] | plant injury at 250 g/ha [8] [%] | Plant response rating, Oat, Wild ([9]; 31 g ai/ha) | Plant response rating, Oat, Wild ([9]; 125 g ai/ha) | Plant response rating, Oat, Wild ([10]; 31 g ai/ha) | Plant response rating, Oat, Wild ([10]; 125 g ai/ha) | Plant response rating, Horseweed ([11]; 31 g ai/ha) | Plant response rating, Horseweed ([11]; 125 g ai/ha)
1 | C#CCOC1CCN(c2cc(NS(=O)(=O)C(F)(F)F)c(C)cc2C)C1=O (stereo not drawn) [Compound 1, N-[2,4-dimethyl-5-[2-oxo-3-(2-propyn-1-yloxy)-1-pyrrolidinyl]phenyl]-1,1,1-trifluoromethanesulfonamide] | 80 | 100 | 164 to 167 | 60 | 80 | 30 | 80 | 90 | 40 | 60 | 60 | 80 | 30 | – | – | – | – | – | –
2 | C=CCOC1CCN(c2cc(NS(=O)(=O)C(F)(F)F)c(C)cc2C)C1=O (stereo not drawn) [Compound 2, N-[2,4-dimethyl-5-[2-oxo-3-(2-propen-1-yloxy)-1-pyrrolidinyl]phenyl]-1,1,1-trifluoromethanesulfonamide] | 80 | 100 | 134 to 137 | 50 | 70 | 20 | 60 | 85 | 30 | 50 | 40 | 75 | 10 | – | – | – | – | – | –
3 | Cc1cc(C)c(N2CCC(OC3CC3)C2=O)cc1NS(=O)(=O)C(F)(F)F (stereo not drawn) [Compound 3, N-[5-[3-(cyclopropyloxy)-2-oxo-1-pyrrolidinyl]-2,4-dimethylphenyl]-1,1,1-trifluoromethanesulfonamide] | 70 | 100 | 171 to 174 | 80 | 90 | 50 | 100 | 98 | 70 | 90 | 90 | 98 | 50 | 40 | 80 | 70 | 100 | 70 | 90
4 | Cc1cc(C)c(N(COC(=O)C(C)(C)C)S(=O)(=O)C(F)(F)F)cc1N1CCC(OC2CCCC2)C1=O (stereo not drawn) [Compound 5, [[5-[3-(cyclopentyloxy)-2-oxo-1-pyrrolidinyl]-2,4-dimethylphenyl][(trifluoromethyl)sulfonyl]amino]methyl 2,2-dimethylpropanoate] | 60 | 90 | – | 60 | 80 | 20 | 70 | 85 | 0 | 80 | 95 | 95 | 0 | 20 | 30 | 0 | 40 | – | –
5 | Cc1cc(C)c(N2CCC(OC3CCCC3)C2=O)cc1NS(=O)(=O)C(F)(F)F (stereo not drawn) [Compound 6, N-[5-[3-(cyclopentyloxy)-2-oxo-1-pyrrolidinyl]-2,4-dimethylphenyl]-1,1,1-trifluoromethanesulfonamide] | 80 | 90 | – | 60 | 90 | 20 | 80 | 75 | 10 | 60 | 30 | 85 | 10 | 0 | 20 | 70 | 90 | – | –
6 | Cc1cc(C)c(N(COC(=O)C(C)(C)C)S(=O)(=O)C(F)(F)F)cc1N1CCC(OC2CC2)C1=O (stereo not drawn) [Compound 7, [[5-[3-(cyclopropyloxy)-2-oxo-1-pyrrolidinyl]-2,4-dimethylphenyl][(trifluoromethyl)sulfonyl]amino]methyl 2,2-dimethylpropanoate] | 90 | 100 | – | 90 | 90 | 70 | 80 | 90 | 60 | 90 | 98 | 95 | 30 | 30 | 70 | 20 | 100 | 80 | 90
7 | Cc1cc(C)c(N(COC(=O)C(C)(C)C)S(=O)(=O)C(F)(F)F)cc1N1CCC(OC2CCC2)C1=O (stereo not drawn) [Compound 8, [[5-[3-(cyclobutyloxy)-2-oxo-1-pyrrolidinyl]-2,4-dimethylphenyl][(trifluoromethyl)sulfonyl]amino]methyl 2,2-dimethylpropanoate] | 100 | 100 | – | 70 | 90 | 60 | 80 | 95 | 30 | 80 | 98 | 95 | 35 | 10 | 30 | 0 | 70 | 70 | 90
8 | CO/N=C1\CCN(c2cc(NS(=O)(=O)C(F)(F)F)c(C)cc2C)C1=O [Compound 9, 1,1,1-trifluoro-N-[5-[3-(methoxyimino)-2-oxo-1-pyrrolidinyl]-2,4-dimethylphenyl]methanesulfonamide] | – | – | 226 to 229 | – | – | – | – | – | – | – | – | – | – | – | – | – | – | – | –
9 | Cc1cc(C)c(N2CC/C(=N\O)C2=O)cc1NS(=O)(=O)C(F)(F)F [Compound 10, 1,1,1-trifluoro-N-[5-[3-(hydroxyimino)-2-oxo-1-pyrrolidinyl]-2,4-dimethylphenyl]methanesulfonamide] | – | – | 213 to 216 | – | – | – | – | – | – | – | – | – | – | – | – | – | – | – | –
10 | C=CCO/N=C1\CCN(c2cc(NS(=O)(=O)C(F)(F)F)c(C)cc2C)C1=O [Compound 11] | – | – | 184 to 187 | – | – | – | – | – | – | – | – | – | – | – | – | – | – | – | –
11 | CCO/N=C1\CCN(c2cc(NS(=O)(=O)C(F)(F)F)c(C)cc2C)C1=O [Compound 12, N-[5-[3-(ethoxyimino)-2-oxo-1-pyrrolidinyl]-2,4-dimethylphenyl]-1,1,1-trifluoromethanesulfonamide] | – | – | 201 to 204 | – | – | – | – | – | – | – | – | – | – | – | – | – | – | – | –
